This note sets out measurements from ChEMBL document CHEMBL1201862, “PubChem BioAssay data set” (2004).

Where “and” joins values, the source holds several entries; their conditions need not be identical. Identical values can stand only once.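 Five compound concentrations were applied to cells in 96-well plates for 48 hours; endpoints were derived by simple linear interpolation of the resulting dose-response curve. Here, GI50 denotes the concentration required for 50% inhibition of growth.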 Calls of active or inactive are those of the source. Rule as the data show it: active = GI50 up to about 1.1 µM and inactive = higher.

Some test systems named below: UACC-257; Malme-3M; HT-29; NCI/ADR-RES; OVCAR-8; RXF 393; SF-268; Hs-578T; NCI-H23; LOX IMVI; UACC-62; ACHN; SF-295; SNB-19; U-251; HOP-62; SF-539; MCF7; HL-60; SR.
What all share (test): growth of human tumour cells (NCI), 48 h

In the case of `CC(=O)O[C@H]1C[C@@H](OC(C)=O)[C@@](C)(O)[C@@H]2[C@@H](OC(C)=O)[C@@]3(O)[C@H](/C=C(/CO)[C@H]4O[C@H]4[C@@H](OC(C)=O)[C@@]12C)OC(=O)[C@@H]3C`, the GI50 was 13.7 µM (inactive) with UACC-257; 7.78 µM (inactive) in the assay on Malme-3M; 11 µM (inactive) in the assay with HT-29; > 25 µM (inactive) in the assay on NCI/ADR-RES; 12.7 µM (inactive) in the assay on OVCAR-8; 2.08 µM (inactive) in the assay with RXF 393. Further, the GI50 with SF-268 was 19.1 µM (inactive); in the assay with Hs-578T, 8.43 µM (inactive); in the assay on NCI-H23, 16.8 µM (inactive); in the assay on LOX IMVI it was 8.71 µM (inactive); in the assay with UACC-62 it was 7.64 µM (inactive); in the assay on ACHN, 16.3 µM (inactive). For the same molecule, the GI50 with SF-295 is 6.12 µM (inactive); in the assay with SNB-19, > 25 µM (inactive); with U-251 it was 6.1 µM (inactive); in the assay on HOP-62, 7.26 µM (inactive).
For `Cc1cccc2sc(NC(=O)NS(=O)(=O)n3cnc4ccccc43)nc12`, the GI50 was 23 µM (inactive) in the assay on UACC-257; 25.2 µM (inactive) in the assay on Malme-3M; 24 µM (inactive) in the assay with SF-539; 33.9 µM (inactive) with HT-29; 27.4 µM (inactive) in the assay with NCI/ADR-RES; 22.5 µM (inactive) in the assay on OVCAR-8. For the same molecule, the GI50 with MCF7 is 16.1 µM (inactive); with RXF 393, 15.9 µM (inactive); in the assay with SF-268 it was 28.5 µM (inactive); in the assay on Hs-578T, 13.8 µM (inactive); in the assay with NCI-H23, 18.4 µM (inactive); in the assay on UACC-62, 18.3 µM (inactive). Further, the GI50 with ACHN was 32.8 µM (inactive); in the assay on SF-295, 20.9 µM (inactive); in the assay on HL-60 it was 31.5 µM (inactive); in the assay with SNB-19 it was 38 µM (inactive); with U-251, 21 µM (inactive); in the assay on HOP-62, 34.7 µM (inactive).
With `CCCCc1nc(C)oc1C(C)C`, the GI50 with UACC-257, in the assay on Malme-3M, in the assay with SF-539, in the assay with HT-29, with NCI/ADR-RES and in the assay with OVCAR-8 was > 100 µM (inactive) each time. In addition, the GI50 in the assay on MCF7, in the assay with RXF 393, with SF-268, in the assay on Hs-578T, with NCI-H23 and in the assay on LOX IMVI was > 100 µM (inactive) in each case. Besides, the GI50 in the assay with UACC-62, with ACHN, with SF-295, in the assay on HL-60, in the assay with U-251 and in the assay on HOP-62 was > 100 µM (inactive) in each case.
In the case of `COC(=O)C1OC(O[C@H]2CC[C@]3(C)[C@H]4CC=C5[C@@H]6CC(C)(C)CC[C@]6(C(=O)OC6OCC(O)C(O)C6OC6OC(C)C(OC7OCC(O)C(O)C7O)C(O)C6O)CC[C@@]5(C)[C@]4(C)CC[C@H]3C2(C)C)C(O)C(O)C1O` (stereo not given in full), the GI50 in the assay with UACC-257 is 14 µM (inactive) and 16 µM (inactive); in the assay on Malme-3M it was 15.5 µM (inactive) and 18.4 µM (inactive); in the assay on SR it was 13.1 µM (inactive) and 10.2 µM (inactive); in the assay on HT-29, 15.8 µM (inactive) and 16 µM (inactive); in the assay with OVCAR-8 it was 21.4 µM (inactive) and 15.2 µM (inactive); with MCF7, 13.5 µM (inactive) and 13 µM (inactive). The GI50 is 21.1 µM (inactive) and 19.5 µM (inactive) in the assay with RXF 393; 17.3 µM (inactive) and 19.6 µM (inactive) in the assay with SF-268; 18.2 µM (inactive) and 20.6 µM (inactive) in the assay with Hs-578T; 15.4 µM (inactive) and 15.8 µM (inactive) with NCI-H23; 16.4 µM (inactive) and 14.6 µM (inactive) in the assay on LOX IMVI; 18 µM (inactive) and 18.2 µM (inactive) with UACC-62. Further, the GI50 is 18.2 µM (inactive) and 17.4 µM (inactive) with SF-295; 21.2 µM (inactive) and 19.1 µM (inactive) in the assay on HL-60; 13.6 µM (inactive) and 17.2 µM (inactive) with SNB-19; 18.4 µM (inactive) and 18.7 µM (inactive) in the assay on U-251; 17.9 µM (inactive) and 18.4 µM (inactive) in the assay on HOP-62.
For `O=C1N/C(=N/N=C/c2cccs2)N/C1=C\c1ccco1`, the GI50 with UACC-257 was 55.7 µM (inactive); in the assay with Malme-3M, 38.6 µM (inactive); in the assay on SF-539, 28.9 µM (inactive); in the assay with HT-29, 39.6 µM (inactive); with NCI/ADR-RES, 66.4 µM (inactive); with OVCAR-8 it was 37 µM (inactive). Also, the GI50 is 30.3 µM (inactive) with MCF7; 90.6 µM (inactive) with RXF 393; 19.8 µM (inactive) with SF-268; 29.3 µM (inactive) in the assay with Hs-578T; 45.3 µM (inactive) with NCI-H23; 21.6 µM (inactive) with LOX IMVI. The GI50 in the assay with UACC-62 was 60.7 µM (inactive); with ACHN, > 100 µM (inactive); in the assay with SF-295, 94.2 µM (inactive); in the assay with HL-60, 31.4 µM (inactive); with SNB-19, 81.5 µM (inactive); with U-251, 23.5 µM (inactive). The GI50 in the assay with HOP-62 was > 100 µM (inactive).
As for `COCC([C@@H](O)C(O)C(=O)NCC[C@@H](C)c1nc(/C=C/CC2OC3(C[C@H](O)C2C)OC(C(C[C@H](O)C(C)[C@H](O)C(C)/C=C(C)/C(C)=C/C=C/C(C)=C/C#N)OC)[C@@H](OP(=O)(O)O)C3(C)C)co1)N(C)C` (stereo not given in full), the GI50 is 0.00105 µM (active) in the assay with UACC-257; 0.000174 µM (active) in the assay with Malme-3M; 0.000189 µM (active) in the assay on SF-539; 0.000162 µM (active) in the assay on HT-29; 0.00107 µM (active) in the assay on NCI/ADR-RES; 0.000208 µM (active) with OVCAR-8. Also, the GI50 is 0.000184 µM (active) with MCF7; 0.000192 µM (active) in the assay on SF-268; 0.000196 µM (active) with Hs-578T; 0.000762 µM (active) in the assay on NCI-H23; 0.000245 µM (active) in the assay on LOX IMVI; 0.000195 µM (active) in the assay on UACC-62. Also, the GI50 is 0.000199 µM (active) with ACHN; 0.000184 µM (active) in the assay with SF-295; 0.00048 µM (active) with HL-60; 0.000195 µM (active) with SNB-19; 0.000191 µM (active) with U-251.
As for `CC(=O)/C=C1\Nc2sc(C)c(C)c2C(=O)S1`, the GI50 with UACC-257 was 70 µM (inactive); with Malme-3M, 30.6 µM (inactive); in the assay on SF-539, 24.5 µM (inactive); in the assay on HT-29, 34.1 µM (inactive); with NCI/ADR-RES, 37.1 µM (inactive); with OVCAR-8 it was 35.6 µM (inactive). Further, the GI50 in the assay on MCF7 is 29.6 µM (inactive); with RXF 393 it was > 100 µM (inactive); with SF-268 it was 28.8 µM (inactive); in the assay on Hs-578T, 20.5 µM (inactive); in the assay on NCI-H23, 35.5 µM (inactive); in the assay on LOX IMVI, 44.6 µM (inactive). Also, the GI50 with UACC-62 is 65.8 µM (inactive); in the assay on ACHN, 74.8 µM (inactive); in the assay on SF-295 it was 48 µM (inactive); with HL-60, 32.1 µM (inactive); in the assay with SNB-19 it was > 100 µM (inactive); in the assay on U-251, 50.2 µM (inactive). The GI50 in the assay on HOP-62 is 89.7 µM (inactive).
As for `CC(CO)[C@H]1OC(=O)C=C2[C@@]13O[C@@H]3[C@H]1OC(=O)[C@@]3(C)[C@H]4O[C@H]4C[C@@]2(C)[C@@H]13` (stereo not given in full), the GI50 with UACC-257 was 1.44 µM (inactive); in the assay on Malme-3M, 2.13 µM (inactive); in the assay on SF-539, 1.83 µM (inactive); in the assay with SR, 288 nM (active); in the assay with HT-29 it was 1.19 µM (inactive); in the assay on OVCAR-8, 2.25 µM (inactive). In addition, the GI50 is 1.07 µM (active) in the assay on MCF7; 1.62 µM (inactive) in the assay on RXF 393; 0.973 µM (active) in the assay with SF-268; 2.52 µM (inactive) with Hs-578T; 2.43 µM (inactive) in the assay with NCI-H23; 0.249 µM (active) in the assay on LOX IMVI. In addition, the GI50 in the assay on UACC-62 is 1.16 µM (inactive); with ACHN, 0.843 µM (active); in the assay on SF-295, 1.36 µM (inactive); in the assay on HL-60, 0.343 µM (active); in the assay with SNB-19, 1.47 µM (inactive); with U-251, 2.15 µM (inactive). For the same molecule, the GI50 in the assay on HOP-62 was 2.94 µM (inactive).
For the molecule `CN1N=C(c2ccccc2)C(C(c2ccccc2[N+](=O)[O-])C2C(=O)N(C)N=C2c2ccccc2)C1=O` (stereo not given), the GI50 was > 71.4 µM (inactive) in the assay on UACC-257; > 100 µM (inactive) in the assay with Malme-3M; > 55.5 µM (inactive) with SF-539; > 68.7 µM (inactive) with HT-29; > 100 µM (inactive) in the assay with NCI/ADR-RES; 39.3 µM (inactive) with OVCAR-8. The GI50 with MCF7 was 47.1 µM (inactive); in the assay with RXF 393, 52 µM (inactive); in the assay with SF-268, 97.7 µM (inactive); in the assay with Hs-578T, > 73.1 µM (inactive); in the assay on NCI-H23 it was > 100 µM (inactive); in the assay with LOX IMVI, 26.9 µM (inactive). Further, the GI50 with UACC-62 is 61.2 µM (inactive); in the assay on ACHN it was > 100 µM (inactive); with SF-295 it was > 100 µM (inactive); in the assay with HL-60, 18.7 µM (inactive); in the assay on SNB-19, > 100 µM (inactive); in the assay on U-251, > 100 µM (inactive). Besides, the GI50 with HOP-62 is 93.1 µM (inactive).
Turning to `O=C(COc1ccc(Cl)cc1Cl)N/N=C/C=C/c1ccc([N+](=O)[O-])o1`, the GI50 with Malme-3M is 2.8 µM (inactive); in the assay on SF-539 it was 7.31 µM (inactive); in the assay on HT-29, 7.01 µM (inactive); in the assay with NCI/ADR-RES it was 11.9 µM (inactive); in the assay on OVCAR-8, 3.44 µM (inactive); in the assay on MCF7, 4.14 µM (inactive). For the same molecule, the GI50 in the assay on RXF 393 was 6.07 µM (inactive); in the assay on SF-268 it was 29.4 µM (inactive); in the assay on Hs-578T, 1.87 µM (inactive); with NCI-H23, 3.18 µM (inactive); in the assay with LOX IMVI it was 3.27 µM (inactive); in the assay with UACC-62, 3.82 µM (inactive). Further, the GI50 is 4.63 µM (inactive) in the assay with ACHN; 23.3 µM (inactive) in the assay with SF-295; 3.76 µM (inactive) in the assay with HL-60; 9.48 µM (inactive) in the assay on SNB-19; 15.7 µM (inactive) in the assay on U-251; 15.1 µM (inactive) with HOP-62.
